Patent US8686178B2, “Derivative of 18β-glycyrrhetinic acid apt to suppress cancer cells” (Kaohsiung Medical University, priority 2011, dated 2014)

How the values were obtained:
[1] = tested on: human bladder cancer cell line NTUB1; test: Trial (A): cytotoxic effect, IC50 by median-effect analysis; format: cell-based; conditions: NTUB1 cells; for IC50: mean ± SD; for cytotoxic effect against cancer cell: with reference to TABLE 2
Description: For the sake of proving therapeutic effects of the derivatives of 18β-glycyrrhetinic acid of the present invention, including 10, 11, 13-17 and 21-25, in treating of cancer, human bladder cancer cell line NTUB1, human prostate cancer cell line PC3 cataloged as CRL-1435 (reference to J. Formosan Med. Assoc. 1992; 91:608-13), and immortalized normal human urothelial cells SV-HUC1 cataloged as CRL-9520 are purchased from American Type Culture Collection (ATCC; Rockville, USA) and maintained in a culturing medium respectively till at a preferable density to carry out a serial of trials (comprising trial A to G) for evaluating cytotoxicities of the derivatives of 18β-glycyrrhetinic acid against cancer cells, and mechanisms thereof.
In the present invention, the NTUB1 and the PC3 is but not limit to be maintained in RPMI 1640 medium supplemented 10% fetal bovine serum (FBS), 100 unit/mL penicillin-G, 100 μg/mL streptomycin, and 2 mM L-glutamine, yet the SV-HUC1 is maintained in F12 medium supplemented with 10% fetal bovine serum (FBS), 100 unit/mL penicillin-G, 100 μg/mL streptomycin, and 2 mM L-glutamine, culturing at 37° C. in a humidified atmosphere containing 5% CO2 till at a density of 70% per well, followed by repeatedly suspending cells in each well with an ethylene diamine tetra-acetic acid buffer (EDTA buffer; Merck) and counting cell numbers.
In the present invention, the IC50 values of each group are presented as mean±standard deviation (SD).

NTUB1 cells [2] = test: Trial (C): synergy with cisplatin, MTT assay; format: cell-based, human; conditions: NTUB1, 72 hours; for cytotoxic effect applied individually (FIGS. 7, 8): single agent; for synergy with cisplatin (FIGS. 7, 8): 1-50 μM compound with 5/10 μM cisplatin
Procedure: Oncol: Semin. Orig. Invest. by maintaining the NTUB1 cells in various condition of medium (with reference to TABLE 3) at 37° C. for 72 hours, and determining cytotoxicities of each medium via MTT assay. In the trial (C), the viability rates of NTUB1 cells […] are also determined by the absorbance spectrometry at 540 nm with a MRX (DYNEXCO) microplate according to trial (B).

NTUB1 cells [3] = test: Trial (F): mitochondrial membrane potential (JC-1) by flow cytometry; format: cell-based, human; conditions: 10 μM, 30 minutes, JC-1, NTUB1
Procedure: In trial (F), mitochondrial membrane potential (MMP) in NTUB1 cells is measured according to a journal article published by Martin et al., at 2009 in PloS one, in which a dysfunction of the mitochondria caused by ROS induced MPP decrease is supposed.
Referring to TABLE 6, the NTUB1 cells at a density of 3×10^5 cells/ml are prepared and assigned into 5 groups, including F1 to F5, to incubate in 10 μM carbonyl cyanide 3-chlorophenylhydrazone (CCCP), and 10, 25 and 50 μM of 25 respectively, for 30 minutes, followed by adding 1 μM of 5,5′,6,6′-tetrachloro-1,1′,3,3′-tetraethylbenzimidaolylcarbocyanine iodide (JC-1) (Molecular Probes, Eugene, Oreg., USA) in each group. Then, the NTUB1 cells in each group are washed with PBS buffer for 3 times, collected in PBS/2% BSA, washed twice by centrifugating at 800 g, 5 minutes and resuspending in 0.3 mL PBS/2% BSA, and finally analyzed by a FACSCalibur flow cytometer (Becton Dickinson), with the FACSCalibur flow cytometer determining and calculating a ratio of JC-1 aggregates (red fluorescence) to JC-1 monomers (green fluorescence) based on levels of MMP in each group.

NTUB1 cells [4] = test: Trial (E): cell cycle progression by flow cytometry (propidium iodide); format: cell-based, human; parameters: Sub-G1 / G1: unit not given here; conditions: 50 μM, 24 hours, NTUB1
Procedure: In order to determine a relationship between the derivatives of 18β-glycyrrhetinic acid of the present invention and cell cycle arrest, trial (E) is carried out by analyzing cell cycle progression by flow cytometry. […] After that, cell cycle progression of each group is determined respectively by incubating with 50 μg/mL propidium iodide (Sigma, Co) and 50 μg/mL RNase A (Sigma, Co) in PBS at room temperature for 30 min, and analyzing by FACScan flow cytometer and Cell Quest sofeware.

SMILES: CC1(C(=O)O)CCC2(C)CCC3(C)C(=CC(=O)C4C5(C)CCC(=O)C(C)(C)C5CCC43C)C2C1 (stereo not drawn) [Compound 2]
- IC50 [1]: 18.6 ± 1.64 µM

SMILES: CC1(C)[C@@H](O)CC[C@]2(C)[C@H]3C(=O)C=C4[C@@H]5C[C@@](C)(C(=O)O)CC[C@]5(C)CC[C@@]4(C)[C@]3(C)CC[C@@H]12 [Compound 1, 18β-glycyrrhetinic acid]
- IC50 [1]: 27.3 ± 5.17 µM

SMILES: CC(C)NC(=O)C1(C)CCC2(C)CCC3(C)C(=CC(=O)C4C5(C)CCC(=O)OC(C)(C)C5CCC43C)C2C1 (stereo not drawn) [Compound 18]
- IC50 [1]: 25.7 ± 1.81 µM

SMILES: C=C(C)[C@@H]1CC[C@]2(C)[C@H](C(=O)C=C3[C@@H]4C[C@@](C)(C(=O)OC)CC[C@]4(C)CC[C@]32C)[C@@]1(C)CCC(=O)NC(C)C [Compound 11, 3-isopropyl carbamoyl-11-oxo-18β-3,4-seco-olean-4(23),12-dien 30-methyl ester]
- IC50 [1]: 31.4 ± 0.55 µM

SMILES: C=C(C)C1CCC2(C)C(C(=O)C=C3C4CC(C)(C(=O)OCc5ccccc5)CCC4(C)CCC32C)C1(C)CCC(=O)OCC (stereo not drawn) [Compound 13, 3,4-seco-11-oxo-18β-olean-4(23),12-dien-3,30-dioic acid 3-ethyl,30-benzyl ester]
- IC50 [1]: 27.8 ± 6.48 µM

SMILES: C=C(C)[C@@H]1CC[C@]2(C)[C@H](C(=O)C=C3[C@@H]4C[C@@](C)(C(=O)NC(C)C)CC[C@]4(C)CC[C@]32C)[C@@]1(C)CCC(=O)NCCC [Compound 24, 30-isopropyl carbamoyl-11-oxo-18β-3,4-seco-olean-4(23), 12-dien 3-propyl carbamate]
- IC50 [1]: > 50 µM

SMILES: C=C(C)[C@@H]1CC[C@]2(C)[C@H](C(=O)C=C3[C@@H]4C[C@@](C)(C(=O)OCc5ccccc5)CC[C@]4(C)CC[C@]32C)[C@@]1(C)CCC(=O)OC [Compound 12, 3,4-seco-11-oxo-18β-olean-4(23), 12-dien-3,30-dioic acid 3-methyl-30-benzyl ester]
- cytotoxic effect against cancer cell [1]: significantly suppress the growth of cancer cells with a lower concentrate
- IC50 [1]: 9.41 ± 2.72 µM
- cytotoxic effect applied individually (FIGS. 7, 8) (NTUB1 cells [2]): cytotoxic effects against to cancer cells
- synergy with cisplatin (FIGS. 7, 8) (NTUB1 cells [2]): dramatic synergy

SMILES: CC1(C(=O)O)CCC2(C)CCC3(C)C(=CC(=O)C4C5(C)CCC(=O)OC(C)(C)C5CCC43C)C2C1 (stereo not drawn) [Compound 5]
- IC50 [1]: 73.5 ± 35.1 µM

SMILES: CC1(C(=O)OCc2ccccc2)CCC2(C)CCC3(C)C(=CC(=O)C4C5(C)CCC(=O)OC(C)(C)C5CCC43C)C2C1 (stereo not drawn) [Compound 7]
- IC50 [1]: 57.6 ± 8.8 µM

SMILES: C=C(C)C1CCC2(C)C(C(=O)C=C3C4CC(C)(C(=O)OCc5ccccc5)CCC4(C)CCC32C)C1(C)CCC(=O)OC(C)C (stereo not drawn) [Compound 14, 3,4-seco-11-oxo-18β-olean-4(23),12-dien-3,30. dioic acid 3-isopropyl-30-benzyl ester]
- IC50 [1]: 18.2 ± 1.58 µM

SMILES: C=C(C)[C@@H]1CC[C@]2(C)[C@H](C(=O)C=C3[C@@H]4C[C@@](C)(C(=O)OCc5ccccc5)CC[C@]4(C)CC[C@]32C)[C@@]1(C)CCC(=O)O [Compound 9]
- cytotoxic effect against cancer cell [1]: significantly suppress the growth of cancer cells with a lower concentrate
- IC50 [1]: 2.34 ± 0.28 µM

SMILES: C=C(C)C1CCC2(C)C(C(=O)C=C3C4CC(C)(C(=O)OC)CCC4(C)CCC32C)C1(C)CCC(=O)OC(C)C (stereo not drawn) [Compound 10, 3,4-seco-11-oxo-18β-olean-4(23),12-dien-3,30-dioic acid 3-isopropyl 30-methyl, ester]
- IC50 [1]: 25.3 ± 2.28 µM

SMILES: COC(=O)C1(C)CCC2(C)CCC3(C)C(=CC(=O)C4C5(C)CCC(=O)C(C)(C)C5CCC43C)C2C1 (stereo not drawn) [Compound 3]
- IC50 [1]: 56.5 ± 14.3 µM

SMILES: C=C(C)[C@@H]1CC[C@]2(C)[C@H](C(=O)C=C3[C@@H]4C[C@@](C)(C(=O)NC(C)C)CC[C@]4(C)CC[C@]32C)[C@@]1(C)CCC(=O)OC(C)C [Compound 22, 30-isopropyl carbamoyl-11-oxo-18β-3,4-seco-olean-4(23),12-dien 3-isopropyl ester]
- IC50 [1]: 29.2 ± 26.6 µM

SMILES: C=C(C)[C@@H]1CC[C@]2(C)[C@H](C(=O)C=C3[C@@H]4C[C@@](C)(C(=O)OC)CC[C@]4(C)CC[C@]32C)[C@@]1(C)CCC(=O)O [Compound 8]
- IC50 [1]: 20.7 ± 4.97 µM

SMILES: CC1(C(=O)OCc2ccccc2)CCC2(C)CCC3(C)C(=CC(=O)C4C5(C)CCC(=O)C(C)(C)C5CCC43C)C2C1 (stereo not drawn) [Compound 4]
- IC50 [1]: 20.2 ± 5.1 µM

SMILES: CC1(C(=O)Nc2ccccc2)CCC2(C)CCC3(C)C(=CC(=O)C4C5(C)CCC(=O)OC(C)(C)C5CCC43C)C2C1 (stereo not drawn) [Compound 26]
- IC50 [1]: 16 ± 5.3 µM

SMILES: C=C(C)[C@@H]1CC[C@]2(C)[C@H](C(=O)C=C3[C@@H]4C[C@@](C)(C(=O)NC(C)C)CC[C@]4(C)CC[C@]32C)[C@@]1(C)CCC(=O)O [Compound 19]
- IC50 [1]: 17.5 ± 2.11 µM

SMILES: C=C(C)[C@@H]1CC[C@]2(C)[C@H](C(=O)C=C3[C@@H]4C[C@@](C)(C(=O)OCc5ccccc5)CC[C@]4(C)CC[C@]32C)[C@@]1(C)CCC(=O)NC(C)C [Compound 17, 3-isopropylcarbamoyl-11-oxo-18β-3,4-seco-olean-4(23), 12-dien 30-benzyl ester]
- IC50 [1]: 30.1 ± 2.41 µM

SMILES: N#CC(C#N)=NNc1cccc(Cl)c1 [CCCP, carbonyl cyanide 3-chlorophenylhydrazone, reference compound]
- R1 (%) (NTUB1 cells [3]): 52.06%

SMILES: OO [Compound H2O2, H2O2, reference compound]
- G1 (NTUB1 cells [4]): 27.15
- G2/M (NTUB1 cells [4]): 20.18
- S (NTUB1 cells [4]): 23.84
- Sub-G1 (NTUB1 cells [4]): 9.48

SMILES: COC(=O)C1(C)CCC2(C)CCC3(C)C(=CC(=O)C4C5(C)CCC(=O)OC(C)(C)C5CCC43C)C2C1 (stereo not drawn) [Compound 6]
- IC50 [1]: 24.3 ± 3.98 µM

SMILES: C=C(C)[C@@H]1CC[C@]2(C)[C@H](C(=O)C=C3[C@@H]4C[C@@](C)(C(=O)NC(C)C)CC[C@]4(C)CC[C@]32C)[C@@]1(C)CCC(=O)OC [Compound 20, 30-Isopropylcarbamoyl-11-oxo-18β-3,4-seco-olean-4(23),12-diene 3-methyl ester]
- IC50 [1]: 13.1 ± 5.27 µM
- cytotoxic effect applied individually (FIGS. 7, 8) (NTUB1 cells [2]): cytotoxic effects against to cancer cells
- synergy with cisplatin (FIGS. 7, 8) (NTUB1 cells [2]): dramatic synergy

SMILES: C=C(C)[C@@H]1CC[C@]2(C)[C@H](C(=O)C=C3[C@@H]4C[C@@](C)(C(=O)Nc5ccccc5)CC[C@]4(C)CC[C@]32C)[C@@]1(C)CCC(=O)O [Compound 27]
- cytotoxic effect against cancer cell [1]: significantly suppress the growth of cancer cells with a lower concentrate
- IC50 [1]: 3.31 ± 0.61 µM

SMILES: C=C(C)[C@@H]1CC[C@]2(C)[C@H](C(=O)C=C3[C@@H]4C[C@@](C)(C(=O)OCc5ccccc5)CC[C@]4(C)CC[C@]32C)[C@@]1(C)CCC(=O)NCC [Compound 15, 3-ethyl carbamoyl-11-oxo-18β-3,4-seco-olean-4(23),12-dien-30-benzyl ester]
- IC50 [1]: 42.7 ± 11.2 µM

SMILES: C=C(C)[C@@H]1CC[C@]2(C)[C@H](C(=O)C=C3[C@@H]4C[C@@](C)(C(=O)OCc5ccccc5)CC[C@]4(C)CC[C@]32C)[C@@]1(C)CCC(=O)NCCC [Compound 16, 3-propylcarbamoyl-11-oxo-18β-3,4-seco-olean-4(23),12-dien 30-benzyl ester]
- IC50 [1]: 49.4 ± 11.5 µM
